Laboratory results: patent US20240299698A1, “PREVENTION AND TREATMENT OF POST-OPERATIVE COGNITIVE DYSFUNCTION (POCD)” (Noetix Pharma LLC, priority 2022, published 2024)

How the values were obtained:
[1] = Body weight monitoring after surgery; type: in vivo, Male C57BI/6 mice; details: Acute and Chronic dose groups vs controls
Protocol: Mice were weighed 24 hours after arrival, weekly prior to the initiation of pirfenidone administration, and then daily throughout the remainder of the study. Post-induction, animals were assessed daily to monitor body condition, pain response, and general recovery parameters. • Test System: Male C57BI/6 mice • Number of Animals/Group: 12 animals per group (total of 48 mice) • Age: Cohort 1: 12 weeks at arrival • Cohort 2: 10 weeks at arrival • Model Induction: Performed at 14 weeks of age • Weight: 31.6±0.42 SEM g at time of surgery • Allocation: Animals were pseudo-randomly assigned to treatment groups balanced for weight • Health inspection: A health inspection was performed by a clinical veterinarian prior to the commencement of the study.
Mice were weighed 24 hours after arrival, weekly prior to the initiation of Test Article administration, and then daily throughout the remainder of the study.

[2] = test system: mouse model of (POCD); assay: Morris water maze testing and probe trial in laparotomy mouse model of POCD; type: in vivo, Male C57BI/6 mice; details: PSD7
Description: (§1) To induce POCD, mice were anesthetized with isoflurane and maintained at a surgical plane of anesthesia (2-2.5%). The abdomen was shaved and cleaned/disinfected with both betadine and ethanol (70%). A 1.5 cm vertical incision was made along the midline of the abdomen, perforating the skin and the peritoneal cavity. A sterile blunt probe was inserted into the cavity, and the abdominal viscera and musculature were manipulated for five minutes. Abdominal muscles and skin were sutured, polysporin and topical lidocaine were applied to the incision site, and buprenorphine (0.1 mg/kg s.c.) was administered. Animals were placed into a clean, pre-warmed home cage for recovery and housed singly thereafter.
Morris water maze testing is a well-established method for evaluating spatial learning and memory. To navigate this maze, the mouse must use extra-maze cues to locate a hidden platform and escape from the water. Testing was performed on PSD7. Mice were given two blocks of four 60 sec trials to find the hidden platform, with latency to reach the platform compared between blocks as a measure of learning/memory processes. Swim speed was evaluated to assess locomotor capabilities. On PSD8 (i.e., 24 hours later), mice were reintroduced into the maze without the platform present for a one-minute probe trial to assess reference memory.
The testing protocol was as follows: 1. The animal was brought into the testing room in a transfer cage. 2. Video recording was begun and the animal's ID card recorded. 3. The mouse was gently placed (i.e., not dropped) into the water at the appropriate start location (N, S, E, or W) facing the pool wall. 4. For 60 seconds, the mouse was allowed to locate and climb onto the submerged platform. If the mouse was unable to locate the platform within the allotted time, it was gently guided there and assigned a score of 61 seconds. 5. The mouse was allowed 60 seconds to recover on the platform and observe the extra-maze cues. If the moused jumped into the water, it was immediately retrieved and placed back on the platform for the remaining duration of the inter-trial interval. 6. Steps 3-5 were repeated for a total of 4 trials (Block 1). 7. The mouse was returned to the transfer cage lined with a dry towel. It was allowed 5 minutes to rest. 8 Steps 3-5 were repeated for a total of 4 trials (Block 2). 9. The mouse was gently dried and returned to its home cage.
The probe session was conducted as follows: 1. The animal was brought into the testing room in a transfer cage. 2. Video recording was begun and the animal's ID card recorded. 3. The mouse was gently placed (i.e., not dropped) into the water at the appropriate start location (N, S, E, or W) facing the pool wall. 4. The mouse was allowed to swim freely for 60 seconds. 5. The mouse was gently dried and returned to its home cage.

[3] = healthy subjects; cited from earlier work
[4] = test system: mouse model of (POCD); assay: Fear conditioning context testing in laparotomy mouse model of POCD; type: in vivo, Male C57BI/6 mice
Description: as §1
Fear conditioning is a commonly used test of associative learning where a […] stimulus is paired with an aversive unconditioned stimulus, resulting in a freezing response that can be subsequently quantified. Training occurred on the day prior to surgery, context testing on PSD1 (i.e., 2 days after training) and PSD3 (i.e., 4 days after training), and cued testing on PSD3 at a time point three hours after the final context test. For training and context testing, mice were placed in an operant chamber (Med Associates). For cued testing, mice were placed into a novel arena with novel external environment and scent.
Fear conditioning training was performed to generate an association between a neutral “conditional” stimulus (80 dB tone) with an aversive “unconditional” stimulus (0.4 mA shock). Before training, the system was tested to confirm proper operation of the shock and tone. During training, the testing environment was kept quiet and well controlled. Temperature and humidity levels were kept constant and the experimenter was not visible from the operant chamber, which was cleaned between animals. The training protocol was as follows: 1. Each mouse was habituated to the testing room for 20 minutes. 2. Video recording was initiated and the animal's ID card was recorded. 3. Each mouse was placed into the operant chamber and the training protocol was implemented as follows: a. 120 seconds; no stimuli (habituation to the chamber); b. 20 seconds, tone presentation (80 dB); c. 20 seconds, no stimuli (trace delay period); d. 2 seconds, foot shock (0.4 mA); e. 90 seconds, no stimuli (intertrial interval); f. repeat steps a-d followed by a final 30 second no stimuli period. 4. The mouse was returned to its home cage.
The purpose of context testing is to evaluate context memory for an aversive environment. Materials for this process included the operant testing chamber, a video recorder, a stopwatch, and data recording sheets. During the testing process the testing environment was kept quiet and well controlled with constant temperature and humidity levels. It was ensured that the experimenter was not visible from the operant chamber. The chamber was cleaned between animals.
Context testing was performed as follows: 1. The mouse was habituated to the testing room for 15 minutes. 2. Video recording was initiated and the animal's ID card recorded. 3. The mouse was placed in the operation chamber and allow ed 270 seconds exploration time. 4. The mouse was returned to its home cage.
Fear conditioning context testing was performed on PSD1 and PSD3, with exposure to the contextual environment presented at the equivalent time of day to the training period in the same arena as was used for training. On PSD3, following the final contextual testing, the cued testing phase was performed. […]

SMILES: Cc1ccc(=O)n(-c2ccccc2)c1 [pirfenidone, 5-methyl-1-phenyl-2-(1H)-pyridone]
- weight loss at 24 hours post-surgery [1]: did not differ between groups
- latency to platform, overall (block x treatment) ([2]; Acute vs Disease Controls, p=0.028): statistically significant decrease in latency to platform
- latency to platform, Block 1 ([2]; Acute vs Disease Controls, p=0.04, Tukey's HSD): found the platform faster than Disease Controls only
- decrease in time to platform between blocks (spatial memory) ([2]; Acute, p=0.61, paired t-test): not seen
- latency to platform, Block 1 ([2]; Chronic compared to both Disease and Normal Controls, p=0.02 and p=0.03, Tukey's HSD): statistically significant decrease in latency to platform
- latency to platform, overall (block x treatment) ([2]; Chronic vs Disease Controls, p=0.052): statistically significant decrease in latency to platform
- decrease in time to platform between blocks (spatial memory) ([2]; Chronic, p=0.54, paired t-test): not seen
- latency to platform, Block 2, between groups ([2]; all groups, p=0.117, one-way ANOVA): no between groups main effect
- mean terminal half-life [3]: approximately 3 hours
- time spent freezing, contextual test, within-group PSD3 compared to PSD1 ([4]; Acute (400 mg/kg p.o. single presurgical dose), p=0.009, paired t-test): less time freezing
- time spent freezing, contextual test, within-group PSD3 compared to PSD1 ([4]; Chronic (400 mg/kg initial; 200 mg/kg p.o. 1x/day), p=0.942, paired t-test): no difference between test presentation days
- time spent freezing, contextual test ([4]; PSD1, Acute (400 mg/kg p.o. single presurgical dose) compared to Chronic pirfenidone animals, p=0.027, LSD post-hoc): increased freezing
- time spent freezing, contextual test ([4]; PSD3, Acute (400 mg/kg p.o. single presurgical dose) vs Normal Controls): performed equivalently to Normal Controls
- time spent freezing, contextual test, between groups ([4]; PSD3, Acute and Chronic groups and controls, p=0.671, One-way ANOVA): no statistical difference between groups
